Experimental data as given in ChEMBL document CHEMBL1201862, “PubChem BioAssay data set” (2004).
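Protocol summary: plate cells (96-well), add compound at 5 concentrations, incubate 48 h, interpolate endpoints linearly. Here, GI50 denotes the concentration required for 50% inhibition of growth.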 Calls of active or inactive are those of the source. No stated cut-off is given here; in the data, active = GI50 up to about 1.1 µM and inactive = higher.

How the values were obtained:
Experiment in all cases: DTP human tumour cell line panel, 48 h
SK-MEL-5 = test system: SK-MEL-5
A498 = test system: A498
SN12C = test system: SN12C
COLO 205 = test system: COLO 205
NCI-H226 = test system: NCI-H226
U-251 = test system: U-251
NCI-H522 = test system: NCI-H522
SNB-19 = test system: SNB-19
SK-OV-3 = test system: SK-OV-3
SK-MEL-28 = test system: SK-MEL-28
HOP-62 = test system: HOP-62
MOLT-4 = test system: MOLT-4
IGROV-1 = test system: IGROV-1
RPMI-8226 = test system: RPMI-8226
OVCAR-5 = test system: OVCAR-5
786-0 = test system: 786-0
UACC-62 = test system: UACC-62
PC-3 = test system: PC-3

Row | Compound | GI50 (SK-MEL-5) | GI50 (A498) | GI50 (SN12C) | GI50 (COLO 205) | GI50 (NCI-H226) | GI50 (U-251) | GI50 (NCI-H522) | GI50 (SNB-19) | GI50 (SK-OV-3) | GI50 (SK-MEL-28) | GI50 (HOP-62) | GI50 (MOLT-4) | GI50 (IGROV-1) | GI50 (RPMI-8226) | GI50 (OVCAR-5) | GI50 (786-0) | GI50 (UACC-62) | GI50 (PC-3)
1 | COc1ccc(C(=O)O)c(Cc2ccc3ccccc3c2)c1 | > 100 µM (inactive) | > 100 µM (inactive) | > 100 µM (inactive) | > 100 µM (inactive) | > 100 µM (inactive) | > 100 µM (inactive) | > 100 µM (inactive) | > 100 µM (inactive) | > 100 µM (inactive) | > 100 µM (inactive) | > 100 µM (inactive) | > 100 µM (inactive) | > 100 µM (inactive) | > 100 µM (inactive) | > 100 µM (inactive) | > 100 µM (inactive) | > 100 µM (inactive) | –
2 | CC1(c2cccc3c2C2(O)C=CC4(CCC32)OCCO4)OCCO1 (stereo unspecified) | > 100 µM (inactive) | > 100 µM (inactive) | > 100 µM (inactive) | > 100 µM (inactive) | > 100 µM (inactive) | > 100 µM (inactive) | > 100 µM (inactive) | > 100 µM (inactive) | > 100 µM (inactive) | > 100 µM (inactive) | > 100 µM (inactive) | > 100 µM (inactive) | > 100 µM (inactive) | > 100 µM (inactive) | > 100 µM (inactive) | > 100 µM (inactive) | > 100 µM (inactive) | –
3 | CCN(CC)CCN(C)CC(C)(C)C(=O)/C=C/c1ccccc1 | 14.2 µM (inactive) | 4.11 µM (inactive) | 10 µM (inactive) | 13.7 µM (inactive) | 17.1 µM (inactive) | 10.4 µM (inactive) | 9.77 µM (inactive) | 15.1 µM (inactive) | 12.6 µM (inactive) | 16 µM (inactive) | 22.1 µM (inactive) | 5.16 µM (inactive) | 16.7 µM (inactive) | 4.15 µM (inactive) | 14 µM (inactive) | 15.8 µM (inactive) | 12.7 µM (inactive) | –
4 | COc1ccc2c(c1)CC1c3c(ccc(OC)c3O)CC2N1C (stereo unspecified) | 18.1 µM (inactive) | > 100 µM (inactive) | 43 µM (inactive) | 18.2 µM (inactive) | 86.1 µM (inactive) | 25.1 µM (inactive) | 19.7 µM (inactive) | 47.6 µM (inactive) | 62.7 µM (inactive) | 21 µM (inactive) | > 92.3 µM (inactive) | 23 µM (inactive) | 44.1 µM (inactive) | 20.9 µM (inactive) | 54.5 µM (inactive) | 29.1 µM (inactive) | 47.4 µM (inactive) | –
5 | O=c1c2cc(Br)ccc2nc(-c2ccccc2)n1NCC1(O)OCC(O)C(O)C1O (stereo unspecified) | > 100 µM (inactive) | > 100 µM (inactive) | > 100 µM (inactive) | > 100 µM (inactive) | > 100 µM (inactive) | > 100 µM (inactive) | > 100 µM (inactive) | > 100 µM (inactive) | > 100 µM (inactive) | > 100 µM (inactive) | > 100 µM (inactive) | 72.8 µM (inactive) | – | > 100 µM (inactive) | > 100 µM (inactive) | > 100 µM (inactive) | > 100 µM (inactive) | –
6 | N#Cc1c(-c2ccc(Cl)cc2)c(C#N)c(=O)n(NS(=O)(=O)c2ccccc2)c1-c1ccccc1 | > 25 µM (inactive) | > 25 µM (inactive) | > 25 µM (inactive) | > 25 µM (inactive) | – | > 25 µM (inactive) | – | > 25 µM (inactive) | > 25 µM (inactive) | > 25 µM (inactive) | > 25 µM (inactive) | > 25 µM (inactive) | – | 17.2 µM (inactive) | > 25 µM (inactive) | > 25 µM (inactive) | > 25 µM (inactive) | > 25 µM (inactive)
7 | Cc1ccc(-c2cc(-c3ccccc3)c(C#N)c(=O)n2C2OC(CO)C(O)C(O)C2O)cc1 (stereo unspecified) | 58.5 µM (inactive) | > 100 µM (inactive) | > 100 µM (inactive) | > 100 µM (inactive) | > 100 µM (inactive) | > 100 µM (inactive) | > 100 µM (inactive) | > 100 µM (inactive) | > 100 µM (inactive) | > 100 µM (inactive) | > 100 µM (inactive) | 21.1 µM (inactive) | > 100 µM (inactive) | > 100 µM (inactive) | > 100 µM (inactive) | > 100 µM (inactive) | > 100 µM (inactive) | –
8 | CCOC(=O)C1(C)CCC(C(C(=O)O)C(=O)O)CC1=O (stereo unspecified) | > 100 µM (inactive) | > 100 µM (inactive) | > 100 µM (inactive) | > 100 µM (inactive) | > 100 µM (inactive) | > 100 µM (inactive) | > 100 µM (inactive) | > 100 µM (inactive) | > 100 µM (inactive) | > 100 µM (inactive) | > 100 µM (inactive) | > 100 µM (inactive) | > 100 µM (inactive) | > 100 µM (inactive) | > 100 µM (inactive) | > 100 µM (inactive) | > 100 µM (inactive) | –
9 | COc1c(C)c2c(c3c1c(=O)c1ccccc1n3C)C=CC(C)(C)O2 | 15.3 µM (inactive) | 32.7 µM (inactive) | 30.2 µM (inactive) | 30.7 µM (inactive) | 36.7 µM (inactive) | 21.8 µM (inactive) | 20.9 µM (inactive) | 41.3 µM (inactive) | 12.7 µM (inactive) | 22 µM (inactive) | 27.2 µM (inactive) | 19.5 µM (inactive) | 30.3 µM (inactive) | 9.02 µM (inactive) | 29.2 µM (inactive) | 23.4 µM (inactive) | 14.4 µM (inactive) | –
10 | COc1ccc(C(C)Nc2cc(OC)c(OC)c(OC)c2)cc1 (stereo unspecified) | 2.54 µM (inactive) | 4.45 µM (inactive) | 7.71 µM (inactive) | 2.48 µM (inactive) | 14.8 µM (inactive) | 2.75 µM (inactive) | 2.51 µM (inactive) | > 25.2 µM (inactive) | 4.4 µM (inactive) | 3.24 µM (inactive) | 2.88 µM (inactive) | 4.61 µM (inactive) | 7.13 µM (inactive) | 3.86 µM (inactive) | 29.5 µM (inactive) | 6.65 µM (inactive) | 2.91 µM (inactive) | –
11 | N#CCCN(CCC#N)c1ccc(C(Sc2ccccc2)C(NC(=O)c2cc([N+](=O)[O-])ccc2Cl)C(=O)Sc2ccccc2)cc1 (stereo unspecified) | 3.27 µM (inactive) | 2.15 µM (inactive) | 1.88 µM (inactive) | 2.34 µM (inactive) | 2.02 µM (inactive) | 1.23 µM (inactive) | 2.36 µM (inactive) | 3.54 µM (inactive) | 5.42 µM (inactive) | 1.96 µM (inactive) | 3.24 µM (inactive) | 0.385 µM (active) | 1.92 µM (inactive) | 1.77 µM (inactive) | 4.38 µM (inactive) | 1.89 µM (inactive) | 1.68 µM (inactive) | –
12 | O=C(O)CCC(=O)OCN1C(=O)C2C3C=CC(C2C1=O)C1C2C(=O)N(COC(=O)CCC(=O)O)C(=O)C2C31 (stereo unspecified) | > 100 µM (inactive) | > 100 µM (inactive) | > 86.5 µM (inactive) | > 57.8 µM (inactive) | > 100 µM (inactive) | > 65.8 µM (inactive) | > 47 µM (inactive) | > 100 µM (inactive) | > 100 µM (inactive) | > 100 µM (inactive) | > 100 µM (inactive) | > 90.4 µM (inactive) | > 100 µM (inactive) | 21.4 µM (inactive) | > 100 µM (inactive) | > 62.7 µM (inactive) | > 100 µM (inactive) | –
